Laboratory results from publication PMC7551886, “Antitumour Effects of Astaxanthin and Adonixanthin on Glioblastoma” (Marine Drugs, 2020).

Columns and labels:
U251MG cells [1] = assay: Cell viability (CCK-8 assay) in U251MG; assay type: cell-based, human; conditions: treated for 96 h
Experimental: U251MG, GL261, or U87MG cells were seeded onto 96-well plates at a density of 2 × 10^3 cells/well with DMEM supplemented with 10% FBS and then incubated for 24 h, after which the culture medium was changed to DMEM containing 10% FBS. Then, astaxanthin, adonixanthin or temozolomide (Tokyo Chemical Industry Co., Ltd., Tokyo, Japan) were added to the culture. Cell proliferation was determined using the CCK-8 assay according to the manufacturer’s instructions (Dojindo, Kumamoto, Japan). After each incubation, 10 μL of CCK-8 solution were added to each well. Plates were incubated for 3 h for 37 °C, and the absorbance was read at 450 nm with a reference wavelength of 630 nm using a Varioscan Flash 2.4 microplate reader (Thermo Fisher Scientific, Waltham, MA, USA).

U251MG cells [2] = assay: Wound healing (cell migration) assay in U251MG; assay type: cell-based, human; conditions: 10 µM, 48 h
Experimental: The cell migration assay was conducted as previously described. GL261 cells and U251 cells (2.0 × 10^4 cells per well) were plated in a 12-well plate (BD Biosciences, Tokyo, Japan) with culture medium supplemented with 10% FBS. After 24 h of incubation, the medium was changed to DMEM containing 1% FBS. After 6 h, wounds were scratched by a P1000 pipette tip and washed with phosphate-buffered saline (PBS) to eliminate cell debris. Then, fresh medium was added with 10 µM astaxanthin or adonixanthin. Pictures were taken at 48 h and these scratched areas were measured using an All-in-One Fluorescence Microscope (BZ-X710; Keyence, Osaka, Japan). The cell migration rate was measured the area of the wound before migration (S0) and after migration (S1) and calculated […]. The control group was then standardized to be 100%. Wound widths at 0 h were created within 1 to 1.5 mm and data were excluded if they were not suitable for that width.

Akt = assay: Immunoblotting, phosphorylation of Akt in GL261; assay type: cell-based, mouse; conditions: GL261, 10 µM, 6 h post-treatment
Experimental: (§1) GL261 cell was seeded at 2.5 × 10^4 cells per well in 24-well plates with culture medium supplemented with 10% FBS. After 24 h of incubation, the medium was changed to DMEM containing 10% FBS and 0.1%DMSO PBS, 300 μM temozolomide, 10 μM astaxanthin, or 10 μM adonixanthin was added for 6 and 48 h. Cells were lysed in a special buffer (RIPA buffer R0278; Sigma-Aldrich, St. Louis, MO, USA) with a protease inhibitor cocktail (Sigma-Aldrich), phosphatase inhibitor cocktails 2 and 3 (Sigma-Aldrich), and sample buffer (Wako, Osaka, Japan). The protein concentration was determined by comparison with a known concentration of bovine serum albumin using the BCA Protein Assay Kit (Thermo Fisher Scientific). The amount of total protein was 2 μg. […] The band intensity was […] using an Immuno Star LD (Wako). Band intensity was measured using an LAS-4000 UV mini Luminescent Image Analyzer (Fujifilm, Tokyo Japan) and Multi Gauge Version 3.0 (Fujifilm). The phosphorylation of ERK1/2, Akt, and p38 MAPK was measured by normalizing against total ERK1/2, total Akt, and total p38 MAPK. […]

cyclin D1 = assay: Immunoblotting, cyclin D1 expression in GL261; assay type: cell-based, mouse; conditions: GL261, 10 µM, 48 h
Experimental: as §1

Bcl-2 = assay: Immunoblotting, Bcl-2 expression in GL261; assay type: cell-based, mouse; conditions: GL261, 10 µM, 48 h
Experimental: as §1, with “μg. Equal amounts of protein in sample buffer containing 10% 2-mercaptoethanol were subjected to sodium dodecyl sulphate polyacrylamide gel electrophoresis (SDS-PAGE) in 5-20% gradient gels (SuperSep Ace; Wako), and the separated proteins were transferred to polyvinylidene difluoride membrane (Immobilon-P; Merck Millipore Corporation, Bedford, MA, USA). After blocking for 30 min with Blocking One-P (Nacalai Tesque), we incubated the membranes with primary antibodies overnight at 4 °C.” for “μg.”

Fibronectin mRNA = assay: qRT-PCR of Fibronectin mRNA in GL261; assay type: cell-based, mouse; conditions: GL261, 10 µM, 48 h
Experimental: To evaluate the effect of astaxanthin and adonixanthin on the expression of Fibronectin mRNA expression, we performed quantitative real-time reverse transcription polymerase chain reaction (qRT-PCR) analysis. GL261 cell was seeded at 2.5 × 10^4 cells well in 24-well plates with culture medium supplemented with 10% FBS. After 24 h of incubation, the medium was changed to DMEM containing 10% FBS and 0.1% DMSO PBS, 300 μM temozolomide, 10 µM astaxanthin, or 10 µM adonixanthin was added for 48 h. After 48 h of treatment, RNA was isolated from GL261 cells using Nucleo Spin RNA II (Takara, Shiga, Japan). RNA concentrations were determined using NanoVue Plus (GE Healthcare Japan, Tokyo, Japan). Single-strand cDNAs were synthesized from the isolated RNAs via reverse transcription with a PrimeScript RT Reagent Kit (Perfect Real Time; Takara). Quantitative real-time RT-PCR was performed using TB Green Premix Ex Taq II (Tli RNaseH Plus; Takara) and a TP800 Thermal Cycler Dice Real Time System (Takara). All procedures were carried out in accordance with the manufacturer’s instructions. […] The results are expressed as relative gene expression levels normalized to that of β-actin.

Row | SMILES | concentration above which cell viability was suppressed (U251MG cells [1]) | suppression of cell migration (U251MG cells [2]) [%] | phosphorylation of Akt (Akt) | expression of cyclin D1 (cyclin D1) | expression of Bcl-2 vs. control (Bcl-2) | mRNA level of fibronectin (Fibronectin mRNA)
1 | CC1=C(/C=C/C(C)=C/C=C/C(C)=C/C=C/C=C(C)/C=C/C=C(C)/C=C/C2=C(C)C(=O)[C@@H](O)CC2(C)C)C(C)(C)C[C@H](O)C1 [Adonixanthin, adonixanthin] | > 0.1 µM | 26.32 ± 5.14 | decreased | decreased | N.S. | decreased
2 | CC1=C(/C=C/C(C)=C/C=C/C(C)=C/C=C/C=C(C)/C=C/C=C(C)/C=C/C2=C(C)C(=O)[C@@H](O)CC2(C)C)C(C)(C)C[C@H](O)C1=O [Astaxanthin, astaxanthin] | more than 1 µM | 21.15 ± 1.84 | decreased | decreased | N.S. | decreased
